Earlier results on 40 substances are cited in publication PMC8198792, “Prediction of Anticancer Peptides with High Efficacy and Low Toxicity by Hybrid Model Based on 3D Structure of Peptides” (International Journal of Molecular Sciences, 2021).

This series has as its system cancer cell lines. More on the design: method as in 6 sources, ref CancerPPD [45] and SATPdb ||| ref CancerPPD/SATPdb ||| ref CancerPPD, SATPdb, Swissprot (PDB) ||| ref CancerPPD/SATPdb/Swissprot(PDB) ||| ref CancerPPD / SATPdb ||| ... The conditions noted are these: cited from earlier work. The text has this:
Supplement ijms-22-05630-s001.zip/ACPs(seguence).xlsx, sheet "D1" | column: Activity || Supplement ijms-22-05630-s001.zip/ACPs(seguence).xlsx, sheet "D2" | column: Activity || Supplement ijms-22-05630-s001.zip/ACPs(seguence).xlsx, sheet "D3" | column: Activity || (+ 2 further places)

[1] abbreviates: ACPs dataset D1, 1 = ACP (positive), 0 = non-ACP (negative), label taken from databases, ref CancerPPD [45] and SATPdb.
Setting [2] is: ACPs dataset D4 (sheet "D4"), label 1 = ACP, experimentally validated ACPs, ref CancerPPD [45] and SATPdb.
[3] abbreviates: ACPs dataset D5 (sheet "D5"), label 1 = ACP (positive set), sequences with CancerPPD/SATPdb ID, ref CancerPPD, SATPdb.
Where [4] appears, read: ACPs dataset sheet D2, 1 = ACP (CancerPPD/SATPdb ID), 0 = non-ACP (Swissprot/PDB ID), ref CancerPPD, SATPdb, Swissprot (PDB).
[5] abbreviates: ACPs dataset D3 (sheet "D3"), label 1 = ACP, 0 = non-ACP, ref CancerPPD/SATPdb.
The mark [6] stands for this setting: ACPs dataset D4 (sheet "D4"), label 1 = ACP, 0 = non-ACP, ref CancerPPD / SATPdb.
Setting [7] is: ACPs dataset D5, sheet "D5", label 1 = ACP, 0 = non-ACP, ref CancerPPD [45] and SATPdb.
Where [8] appears, read: ACPs dataset D2 (supplement ACPs(seguence).xlsx, sheet D2), dataset label 1/0 (ACP / non-ACP), entries identified by Swissprot(PDB ID), ref CancerPPD/SATPdb/Swissprot(PDB).
Setting [9] is: ACPs dataset D5 (sheet "D5"), label 1 = ACP (positive set), 0 = non-ACP (negative set), ref CancerPPD [45] and SATPdb.
The mark [10] stands for this setting: ACPs dataset D1, label 1 = ACP, 0 = non-ACP (non-anticancer AMPs from SATPdb), ref CancerPPD/SATPdb.
Where [11] appears, read: ACPs dataset D4 (sheet "D4"), label 1 = ACP (CancerPPD ID), 0 = non-ACP (non-anticancer AMP, SATPdb ID), ref CancerPPD [45] and SATPdb.
The mark [12] stands for this setting: ACPs dataset D3 (supplement sheet "D3"), 1 = ACP, 0 = non-ACP, ref CancerPPD [45] and SATPdb.

Where two headings read alike, the source gives them in different places.

Regarding “IYSFDGRDIMTDPSWPQKVIWHGSSPHGVRLVDNYCEAWRTA [satpdb23000]”, the Activity by setting is: under setting [1], 1; under setting [2], 1; under setting [3], 1; under setting [4], 1.

As to KAAKKAWKAWKKAAKAAWKKAA [compound 4477], the Activity under setting [1] is reported as 1, the Activity under setting [2] is recorded as 1, the Activity under setting [3] is on record as 1 and the Activity under setting [4] is listed as 1.

For the substance KAAKKAWKWAKKAAKWAKKAA [compound 4479], the Activity runs as follows: under setting [1], 1; under setting [2], 1; under setting [3], 1; under setting [4], 1.

As to KAFDITYVRLKF [satpdb20842], the Activity is 1 under setting [1], 1 under setting [2], 1 under setting [3] and 1 under setting [4].

With KAYSTPRCKYLFRAVLCWL [satpdb14444], the Activity runs as follows: under setting [5], 0; under setting [6], 0; under setting [7], 0.

As for KCGHKHQCAVHN [satpdb17767], the Activity runs as follows: under setting [1], 1; under setting [2], 1; under setting [3], 1; under setting [4], 1.

With “KDCKRESNTFPGICITKPPCRKACIREKFTDGHCSKILRRCLCTKPC [5KK4 X-ray 1.70 A/B/C/D/E/F 1-47]”, the Activity was 0 under setting [8] and 0 under setting [9].

As for “KFCEKPSGTWSGVCGNSGACKDQCIRLEGAKHGSCNYKLPAHRCICYYEC [satpdb13047]”, the Activity under setting [10] is on record as 0 and the Activity under setting [6] is 0.

Take KFPKFRRGIPFLFV [satpdb10093]: the Activity is reported as 0 under setting [1] and 0 under setting [11].

Regarding KGRGKRRRCKQRPSDCPRR [satpdb22253], the Activity under setting [1] is on record as 1, the Activity under setting [2] is 1, the Activity under setting [3] is recorded as 1 and the Activity under setting [4] is reported as 1.

As for KGRGKRRREKQRPCDKPRR [satpdb15140], the Activity is on record as 1 under setting [1], 1 under setting [2], 1 under setting [3] and 1 under setting [4].

With KIKLFKKWPKFLHLAKKF [satpdb14419], the Activity is 0 under setting [5], 0 under setting [6] and 0 under setting [7].

For KIKSCYYLPCFVTS [satpdb14785], the Activity reads like this: under setting [1], 1; under setting [2], 1; under setting [3], 1; under setting [4], 1.

For the substance “KILRGVAKKILRTFLRRISKDILTGKK [compound 3329]”, the Activity is, setting by setting: under setting [12], 1; under setting [11], 1; under setting [9], 1.

On to KILRGVAKKIMRTFLRRILTGKK [compound 3321], for which the Activity under setting [12] is given as 1, the Activity under setting [11] is given as 1 and the Activity under setting [9] is 1.

In the case of “KILRGVAKKIMRTFLRRISKDILTGKK [compound 3325]”, the Activity under setting [12] is on record as 1, the Activity under setting [11] is 1 and the Activity under setting [9] was 1.

For the substance KKLFKKilkYL [satpdb14386], the Activity under setting [5] was 0, the Activity under setting [6] is listed as 0 and the Activity under setting [7] is 0.

With KKLLKWLKKLL [satpdb14598], the Activity is on record as 0 under setting [5], 0 under setting [6] and 0 under setting [7].

As for “KKVCACPKILKPVCGSDGRTYANSCIARCNGVSIKSEGSCPTGILN [1LDT X-ray 1.90,L,1-46]”, the Activity under setting [8] is reported as 0 and the Activity under setting [9] is listed as 0.

In the case of “KKWGWLAWVDPAYEFIKGFGKGAIKEGNKDKWKNI [2JPK NMR - A 1-35]”, the Activity runs as follows: under setting [8], 0; under setting [9], 0.

Take KLALKLALKAlkAALKLA [satpdb10294]: the Activity is, setting by setting: under setting [1], 0; under setting [11], 0.

For “KLCERSSGTWSGVCGNNNACKNQCINLEGARHGSCNYVFPYHRCICYFPC [satpdb11142]”, the Activity under setting [1] is reported as 0 and the Activity under setting [11] is listed as 0.

For the substance “KLCGETCFKFKCYTPGCSCSYPFCK [compound 4395]”, the Activity is listed as 1 under setting [1], 1 under setting [2], 1 under setting [3] and 1 under setting [4].

With KLLKKLLKWLK [satpdb13967], the Activity is, setting by setting: under setting [5], 0; under setting [6], 0; under setting [7], 0.

Turning to KMWSKILGHLIR [compound 3511], the Activity runs as follows: under setting [12], 1; under setting [11], 1; under setting [9], 1.

As for KNWKAILKHIIK [satpdb13480], the Activity under setting [5] was 0, the Activity under setting [6] is 0 and the Activity under setting [7] is listed as 0.

For the substance “KNWKK-Aib-LKK-Aib-IK-Aib-VK [compound 3503]”, the Activity is on record as 1 under setting [12], 1 under setting [11] and 1 under setting [9].

Consider KNWKKILGKIIKVVK [compound 3509], for which the Activity reads like this: under setting [12], 1; under setting [11], 1; under setting [9], 1.

Take “KRFKKFFKKLKNSVKKRVKKFFRKPRVIGVTFPF [satpdb10654]”: the Activity is, setting by setting: under setting [1], 0; under setting [11], 0.

On to “KRGFGKKLRKRLKKFRNSIKKRLKNFNVVIPIPLPG [satpdb11105]”, for which the Activity is reported as 0 under setting [1] and 0 under setting [11].

Take “KRRHWFPLSFQEFLEQLRRFRDQLPFP [satpdb12966]”: the Activity is 0 under setting [10] and 0 under setting [6].

In the case of KRRREKQRPCDKPRR [satpdb15198], the Activity is recorded as 1 under setting [1], 1 under setting [2], 1 under setting [3] and 1 under setting [4].

“KSSAYSLQMGATAIKQVKKLFKKWGW [compound 4448]”: the Activity is listed as 1 under setting [1], 1 under setting [2], 1 under setting [3] and 1 under setting [4].

Regarding KSVRGKGKGQKRKRKKSRYK [satpdb21584], the Activity under setting [1] is 1, the Activity under setting [2] is 1, the Activity under setting [3] is reported as 1 and the Activity under setting [4] was 1.

As for KTCENLADTFRGPCFATSNC [compound 4449], the Activity under setting [1] is given as 1, the Activity under setting [2] is given as 1, the Activity under setting [3] is reported as 1 and the Activity under setting [4] was 1.

As for “KTCENLSGTFKGPCIPDGNCNKHCRNNEHLLSGRCRDDFRCWCTNRC [6NOM NMR - A 1-47]”, the Activity is, setting by setting: under setting [8], 0; under setting [9], 0.

In the case of KVKVKVKVpPTKVKVKVK [compound 3218], the Activity was 1 under setting [12], 1 under setting [11] and 1 under setting [9].

KVMAHMK [satpdb14375]: the Activity runs as follows: under setting [5], 0; under setting [6], 0; under setting [7], 0.

On to “KVNANAIKKGGKAIGKGFKVISAASTAHDVYEHIKNRRH [satpdb12894]”, for which the Activity runs as follows: under setting [10], 0; under setting [6], 0.

As for KWCFCVCYRGICYCRCRG [satpdb12871], the Activity is given as 0 under setting [10] and 0 under setting [6].
